In patent US6991818B2, “Compound iso-squamocin obtained from seeds of annona squamosa and composition containing the same” (Council of Scientific & Industrial Research, priority 2001, dated 2006):
In brackets after ≈: the same amount, converted by molar mass. Like-named read-outs stand apart in the source and are kept apart here.

Experiments:
southern corn rootworm = conditions: in vivo; cited from earlier work
cotton aphid = conditions: in vivo; cited from earlier work
two sported spider mite = conditions: in vivo; cited from earlier work
[1] = tested on: Two spotted spidermite (TSSM); assay: Evaluation screen (EVAL) for insecticidal activity; format: in vivo; conditions: 250 ppm
From the text: (§1) Two spotted spidermite, green peach aphid (GPA) and corn plant hopper (GPH) when they were subjected evaluation screen (Eval) and evaluation screen delayed toxicity test EVDT for the insecticidal activity and results are summarized below: […]

[2] = tested on: oriental armyworm (Mythimna separata WLK) larvae; assay: Insect antifeedant bioassay on sorghum leaf discs; format: in vivo; conditions: for mortality: first and third instar larvae, concentration of 0.05% (MeOH) at 27°, untreated control 7% mortality; for Damage rating: 0.05% in methanol, visual scale 1 to 9 (1=<10%, 9=>80% leaf area consumed)
Experimental: The sample solutions (10 μl of a 0.05% solution) were applied evenly to the lower surface of leaf discs (5 cm^2) cut from sorghum hybrid variety CSH5 and the discs were allowed to dry on filter papers. After drying the leaf, discs were offered to 10 first instar M. separata larvae in plastic cups or to one third instar larva in 9-cm (diameter) plastic petric dishes. All larvae were starved for 2 h before the test and the leaf and the leaf discs were kept on moisture filter papers to keep them turgid. The larvae were confined to leaf discs for 24 h and during the period the larvae scratched or consumed >80% of the leaf disc area in the untreated controls. The leaf discs were rated visually for the extent of feeding on a scale upto 1 to 9 (1=<10%, 2=11 to 20%, 3=21 to 30%, 4=31 to 40%, 5=41 to 7=61 to 70%, 8=71 to 80%, 9=>80% leaf area scratched consumed). The larvae were then stirred for 12 h and weighed. Isosquamocin was evaluated by this procedure and the results have shown that it drastically. The feeding of the leaves of sorghum hybrid variety CSH 5 at a concentration of 0.05% in methanol) in comparison with control (methanol) against the first instar and third instar larvae of oriental armyworm (Mythimna separata WLK). It is very toxic to first instar larvae causing high larval mortality and the results are presented below: […]

corn plant hopper (CP-H) = assay: Evaluation screen delayed toxicity test (EVADT); format: in vivo; conditions: 250 ppm
From the text: as §1

green peach aphid (GPA) = assay: Evaluation screen delayed toxicity test (EVADT); format: in vivo; conditions: 250 ppm
From the text: as §1

[3] = tested on: Two spotted spidermite (TSSM); assay: Evaluation screen delayed toxicity test (EVADT); format: in vivo; conditions: 250 ppm
From the text: as §1

[4] = tested on: newly hatched variegated cutworm (peridroma saucia, Noctuidae); assay: Chronic larval growth bioassay; format: in vivo; conditions: 10 days at 26° C.; for Larval growth, % of control / Larval survival, % of control / activity at 20 ppm: 20 ppm, newly hatched larvae (n=20); for activity at 20 ppm: Peridroma saucia, 240 h
Experimental: Chromic larveal growth bioassay % of control given in parenthesis. […] These bioassays were carried out according to the procedure described earlier (M. B. Isman, O. Koul, A. Luczynski and J. Kaminski, J. Agric. Food Chem. 38, 1406 (1990). These tests were performed by Prof. M. B. Isman and colleagues at University of British Columbia, Vancouver, Canada.

[5] = tested on: Southern Corn rootworm (SCRW); assay: Evaluation screen (EVAL) for insecticidal activity; format: in vivo; conditions: 250 ppm
L-5178 Y = conditions: in vitro cytotoxic activity against L-5178 Y; cited from earlier work
[6] = tested on: yellow fever mosquito Aedes aegyptii; conditions: cited from earlier work
[7] = tested on: certain human tumor cell lines; conditions: values as low as; cited from earlier work
colon cell line (H-29) = conditions: cited from earlier work
lung cell line (A-549) = conditions: cited from earlier work
[8] = Solubility of the waxy substance; format: physicochemical
[9] = First instar larvae, 0.05% in methanol on leaf discs, 24 h

bullatacin
insecticidal concentration, southern corn rootworm (southern corn rootworm): 24 ppm
insecticidal concentration, cotton aphid (cotton aphid): 1 ppm
insecticidal concentration, two sported spider mite (two sported spider mite): 10 ppm

CCCCCCCCCC[C@H](O)[C@H]1CC[C@H]([C@H]2CC[C@H]([C@H](O)CCCCCCCCCC[C@@H](O)CC3=C[C@H](C)OC3=O)O2)O1 [squamocin-G]
TSSM [1]: L8 (Less than 80% mortality)
mortality [2]: 70%
CP-H (corn plant hopper (CP-H)): G8 (Greater than 80% reduction in population)
GPA (green peach aphid (GPA)): L8 (Less than 80% mortality)
TSSM [3]: L9 (Less than 90% reduction in population)
Larval growth, % of control [4]: 34%
Larval survival, % of control [4]: 45%
EC 50 ([4]; chronic larval growth bioassay): 5.65 ppm
LC 50 ([4]; chronic larval growth bioassay): 12 ppm
SCRW [5]: 100

CCCCCC[C@@H](O)CCC[C@H](O)[C@@H]1CC[C@@H]([C@H](O)CC[C@@H](O)[C@@H]2CC[C@@H](CCCCCCCCCC3=C[C@@H](C)OC3=O)O2)O1 [squamostatin-A]
IC50 (L-5178 Y): 0.5 µg/mL (≈ 0.783 µM)
Larval growth, % of control [4]: 138%
Larval survival, % of control [4]: 100%

CCCCCCCCCC[C@H](O)[C@H]1CC[C@H]([C@H](O)CC[C@H](O)[C@@H]2CC[C@@H](CCCCCCC[C@@H](O)CC3=C[C@H](C)OC3=O)O2)O1 [bullatalicin, bullatalicin/squamostatin-B]
LC 50 [6]: 9 mg/lit^−1
ED50 [7]: ≥ 10^−7 ug/ml
times more toxic than adriamycin (colon cell line (H-29)): about 10,000 times
times more toxic than adriamycin (lung cell line (A-549)): about 10,000 times
activity at 20 ppm ([4]; read-out: Larval growth, % of control): 135%
activity at 20 ppm ([4]; read-out: Larval survival, % of control): 100%

bullatanocin/squamostatin-C/Annonin-V/Cherimolin-II
times more toxic than adriamycin (colon cell line (H-29)): about 10,000 times
times more toxic than adriamycin (lung cell line (A-549)): about 10,000 times

CCCCCCCCCCCCC(O)C1CCC(C(O)CCCCC(O)CCCCCC(O)CC2=CC(C)OC2=O)O1 (stereo not drawn) [annonacin A, reference compound]
LC 50 [6]: 10.8 mg/lit^−1

isosquamocin
TSSM [1]: L8 (Less than 80% mortality)
Larval Survival (%) [2, 9]: 10.4%
Mean larval mass [2, 9]: 0.2 mg
Damage rating ([2]; First instar larvae): 1.3
Mean larval mass ([2]; Third instar larvae, 0.05% in methanol on leaf discs, 24 h): 15.7 mg
Damage rating ([2]; Third instar larvae): 1.0
mortality [2]: 70%
CP-H (corn plant hopper (CP-H)): G8 (Greater than 80% reduction in population)
TSSM [3]: L9 (Less than 90% reduction in population)
Solubility in ether, chloroform, dichloromethane, acetone, methanol and ethyl acetate [8]: readily soluble
Solubility in petroleum ether/hexane and water [8]: insoluble or very sparingly soluble
Larval growth, % of control [4]: 20%
Larval survival, % of control [4]: 55%
SCRW [5]: 100
